Measurements as given in patent US10597388B2, “Pyridazinone herbicides” (FMC CORPORATION, priority 2014, dated 2020).

Columns and labels:
Experiment in all cases: Test E greenhouse herbicide test, pre- and postemergence
Type in all cases: in vivo
[1] = tested on: Italian ryegrass (Lolium multiflorum)
Outline: (§1)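 Compounds in a non-phytotoxic solvent mixture with surfactant were applied preemergence to seeds in silt loam soil and postemergence to 2-18 cm plants (1- to 4-leaf stage) in peat-based medium. After 14 to 21 d in a greenhouse, injury was rated visually against untreated controls on a 0 (no effect) to 100 (complete control) scale.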

[2] = tested on: waterhemp (common waterhemp, Amaranthus rudis)
Outline: as §1

[3] = tested on: horseweed (Conyza canadensis); conditions: Postemergence
Outline: as §1

[4] = tested on: momingglory (Ipomoea coccinea); conditions: Preemergence
Outline: as §1

[5] = tested on: ragweed (common ragweed, Ambrosia elatior)
Outline: as §1

[6] = tested on: arrowleaf sida (Sida rhombifolia)
Outline: as §1

[7] = tested on: goosegrass (Eleusine indica); conditions: Preemergence
Outline: as §1

[8] = tested on: field bindweed (Convolvulus arvensis)
Outline: as §1

[9] = tested on: surinam grass (Brachiaria decumbens); conditions: Preemergence
Outline: as §1

[10] = tested on: nightshade (eastern black nightshade, Solanum ptycanthum); conditions: Preemergence
Outline: as §1

[11] = tested on: beggarticks (hairy beggarticks, Bidens pilosa)
Outline: as §1

[12] = tested on: barnyardgrass (Echinochloa crus-galli)
Outline: as §1

[13] = 62 g ai/ha, Postemergence, scale 0 to 100 (0 no effect, 100 complete control)
[14] = 62 g ai/ha, Preemergence, scale 0 to 100 (0 no effect, 100 complete control)
[15] = 125 g ai/ha, Postemergence, scale 0 to 100 (0 no effect, 100 complete control)
[16] = 125 g ai/ha, Preemergence, scale 0 to 100 (0 no effect, 100 complete control)
[17] = 250 g ai/ha, Postemergence, scale 0 to 100 (0 no effect, 100 complete control)
[18] = Postemergence, 31 g ai/ha, visual, scale 0 no effect to 100 complete control
[19] = Preemergence, 31 g ai/ha, scale 0 to 100, 0 no effect, 100 complete control
[20] = Preemergence, 250 g ai/ha, visual, scale 0 no effect to 100 complete control
[21] = 62 g ai/ha, scale 0 to 100 (0 no effect, 100 complete control)
[22] = 125 g ai/ha, scale 0 to 100 (0 no effect, 100 complete control)
[23] = 31 g ai/ha, scale 0 to 100, 0 no effect, 100 complete control
[24] = 250 g ai/ha, visual, scale 0 no effect to 100 complete control
[25] = Preemergence, 125 g ai/ha, visual, scale 0 no effect to 100 complete control

With `CCc1sc2c(C)cc(C)cc2c1-c1c(O)c(C)nn(C)c1=O` [Compound 57] the “Plant response rating, Ryegrass, Italian” value [1, 13] was 0, the “Plant response rating, Ryegrass, Italian” value [1, 14] was 35 and the “Plant response rating, Ryegrass, Italian” value [1, 15] was 20. The “Plant response rating, Ryegrass, Italian” value [1, 16] was 65, the “Plant response rating, Ryegrass, Italian” value [1, 17] was 50 and the “Plant response rating, Ryegrass, Italian” value [1, 18] was 0. The “Plant response rating, Ryegrass, Italian” value [1, 19] was 10, the “Plant response rating, Ryegrass, Italian” value [1, 20] was 80 and the “Plant response rating, Waterhemp” value [2, 13] was 50. For the same compound, the “Plant response rating, Waterhemp” value [2, 14] was 75, the “Plant response rating, Waterhemp” value [2, 15] was 30 and the “Plant response rating, Waterhemp” value [2, 16] was 40. For the same compound, the “Plant response rating, Waterhemp” value [2, 17] was 75, the “Plant response rating, Waterhemp” value [2, 18] was 50 and the “Plant response rating, Waterhemp” value [2, 19] was 80. For the same compound, the “Plant response rating, Waterhemp” value [2, 20] was 80, the “Plant response rating, Horseweed” value [3, 21] was 75 and the “Plant response rating, Horseweed” value [3, 22] was 75. For the same compound, the “Plant response rating, Horseweed” value ([3]; 250 g ai/ha, scale 0 to 100 (0 no effect, 100 complete control)) was 80, the “Plant response rating, Horseweed” value ([3]; 31 g ai/ha, visual, scale 0 no effect to 100 complete control) was 60 and the “Plant response rating, Morningglory” value [4, 21] was 40. The “Plant response rating, Morningglory” value [4, 22] was 100, the “Plant response rating, Morningglory” value [4, 23] was 85 and the “Plant response rating, Morningglory” value [4, 24] was 100. For the same compound, the “Plant response rating, Ragweed” value [5, 13] was 60, the “Plant response rating, Ragweed” value [5, 14] was 100 and the “Plant response rating, Ragweed” value [5, 15] was 95. For the same compound, the “Plant response rating, Ragweed” value [5, 16] was 100, the “Plant response rating, Ragweed” value [5, 17] was 95 and the “Plant response rating, Ragweed” value [5, 18] was 50. The “Plant response rating, Ragweed” value [5, 19] was 90, the “Plant response rating, Ragweed” value [5, 20] was 100 and the “Plant response rating, Arrowleaf Sida” value [6, 13] was 20. For the same compound, the “Plant response rating, Arrowleaf Sida” value [6, 14] was 0, the “Plant response rating, Arrowleaf Sida” value [6, 15] was 40 and the “Plant response rating, Arrowleaf Sida” value [6, 17] was 45. The “Plant response rating, Arrowleaf Sida” value [6, 18] was 10, the “Plant response rating, Arrowleaf Sida” value [6, 19] was 0 and the “Plant response rating, Arrowleaf Sida” value [6, 25] was 50. For the same compound, the “Plant response rating, Arrowleaf Sida” value [6, 20] was 40, the “Plant response rating, Goosegrass” value [7, 21] was 0 and the “Plant response rating, Goosegrass” value [7, 23] was 10. For the same compound, the “Plant response rating, Goosegrass” value ([7]; 125 g ai/ha, visual, scale 0 no effect to 100 complete control) was 5, the “Plant response rating, Goosegrass” value [7, 24] was 5 and the “Plant response rating, Field Bindweed” value [8, 13] was 95. For the same compound, the “Plant response rating, Field Bindweed” value [8, 14] was 95, the “Plant response rating, Field Bindweed” value [8, 15] was 98 and the “Plant response rating, Field Bindweed” value [8, 17] was 95. The “Plant response rating, Field Bindweed” value [8, 18] was 85, the “Plant response rating, Field Bindweed” value [8, 19] was 70 and the “Plant response rating, Field Bindweed” value [8, 25] was 98. For the same compound, the “Plant response rating, Field Bindweed” value [8, 20] was 100, the “Plant response rating, Surinam Grass” value [9, 21] was 70 and the “Plant response rating, Surinam Grass” value [9, 22] was 85. For the same compound, the “Plant response rating, Surinam Grass” value [9, 23] was 5, the “Plant response rating, Surinam Grass” value [9, 24] was 95 and the “Plant response rating, Nightshade” value [10, 21] was 98. For the same compound, the “Plant response rating, Nightshade” value [10, 22] was 98, the “Plant response rating, Nightshade” value [10, 23] was 90 and the “Plant response rating, Nightshade” value [10, 24] was 98. For the same compound, the “Plant response rating, Beggarticks” value [11, 13] was 100, the “Plant response rating, Beggarticks” value [11, 14] was 100 and the “Plant response rating, Beggarticks” value [11, 15] was 100. The “Plant response rating, Beggarticks” value [11, 17] was 100, the “Plant response rating, Beggarticks” value [11, 18] was 100 and the “Plant response rating, Beggarticks” value [11, 19] was 100. For the same compound, the “Plant response rating, Beggarticks” value [11, 25] was 100, the “Plant response rating, Beggarticks” value [11, 20] was 100 and the “Plant response rating, Barnyardgrass” value [12, 13] was 85. For the same compound, the “Plant response rating, Barnyardgrass” value [12, 14] was 0, the “Plant response rating, Barnyardgrass” value [12, 15] was 90 and the “Plant response rating, Barnyardgrass” value [12, 17] was 90. For the same compound, the “Plant response rating, Barnyardgrass” value [12, 18] was 80, the “Plant response rating, Barnyardgrass” value [12, 19] was 0 and the “Plant response rating, Barnyardgrass” value [12, 25] was 75. For the same compound, the “Plant response rating, Barnyardgrass” value [12, 20] was 100.
